# Laboratory results taken from patent US20030144271A1, “Methods for the treatment of substance abuse” (priority 2000, published 2003).
# Several values for one entry are separate records, joined by “and”; a condition that tells them apart may be missing. Equal entries are not always repeated. Entries after “also recorded” stand apart in the source; their conditions may differ.
# What was measured:
# [1] = tested on: alcohol / volatile inhalant dependent patients; experiment: Open Alc/Inhalant therapeutic (N + A + CCB) drug dependence trial (Example 7, Table 2); type: in vivo, human; settings: A666 × 3 mg/d; for Key Parameters: Audit Score: score out of 40; for Key Parameters: Abstinence / Key Parameters: Craving / Key Parameters: Relapse: scale 0-10
# Description: (§1) (v) Scoring of key parameters was based on questionaries completed by the subject. For the audit score, an initial base-line questionnaire preceding treatment and subsequently, a similar weekly questionnaire, following each week of treatment was conducted by the trial clinician and trial subject. The subject's answers were assigned a value and the score for all 10 questions totalled (out of 40). A total of 13+ is indicated as alcohol dependent, 8+ as a hazardous drinker and less than 8 a safe drinker, with 0 indicating abstinence. Levels of Craving, tendency to Relapse and degree of Abstinence were rated by the subject on a scale of 0-10, with 0,0 indicating absence of craving and relapse respectively, and 10 indicating total abstinence from alcohol and volatile inhalant.
# Two patients were treated in an open trial with a daily dose of naltrexone, acamprosate and verapamil. Key parameters were evaluated as per Example 6. The results are presented in Table 2, depicting treatment duration, patient characteristics, key parameters and improved parameters and side-effects.
# [2] = tested on: detoxified alcoholic patients; experiment: N-of-1 double-blind placebo-controlled cross-over clinical trial in detoxified alcoholic patients (Example 6, Table 1); type: in vivo, human; settings: 5 mg, in two subjects
# Description: The patient characteristics, their randomised active and control treatments and their outcomes, and the key and ancillary parameters on which the progressive comparative weekly safeties and efficacies of the active and control treatments were determined for each of the 6 double-blind trial subjects are all shown in Table 1.
# (i) Each trial subject received sequentially 3 different but operationally-related individual treatments, each on an oral once daily basis, labelled, for convenience, A (which may randomly be an active or control treatment), B (wash-out) and C (which may also randomly be a control or […])
# (ii) To permit their optimal comparison by the same test subject, treatments A & C were both given for the same and longest length of time available before the trial was terminated. Patient and clinician bias in interpretation was minimised or excluded by giving these treatments on a randomised double-blind basis which ensured that neither knew if the active or control treatment was given first or last. Thus sometimes, labelled treatment A or C was the active or control treatment and vice versa. The actual drug components of treatments A, B and C for each trial subject, and the duration of each treatment are also shown in Table 1 in each case. […]
# [3] = in vivo; cited from earlier work
# [4] = tested on: detoxified opiate subjects; experiment: Double-blind placebo-controlled cross-over trial in detoxified opiate subjects (Table 1A, comparative); type: in vivo, human; settings: weekly; for Abstinence: scale 0-10, 10 = total abstinence
# Description: (ii) To permit their optimal comparison by the same test subject, treatments A & C were both given for the same and longest length of time available before the trial was terminated. […] The actual drug components of treatments A, B and C for each trial subject, and the duration of each treatment are also shown in Table 1 in each case.
# as §1, with “For the audit score, an initial base-line questionnaire preceding treatment and subsequently, a similar weekly questionnaire, following each week of treatment was conducted by the trial clinician and trial subject.” left out
# […] […] However, many opiate (or other substance) addicts also have a secondary addiction to alcohol or use alcohol excessively when they are unable to obtain the opiate of addiction. The present invention can also be used to treat such multi-substance addicted subjects.
structure (smiles),measurement,setting,value
CC(=O)NCCCS(=O)(=O)O [A666 × 3],Key Parameters: Audit Score,"[1]; subject 1 (Alc 20+ Units/d), 01/07/00",37
same,Improved (1) Ancillary Parameters: Energy,"[1]; subject 1, 01/07/00",0
same,Improved (1) Ancillary Parameters: In-Control,"[1]; subject 1, 01/07/00",0
same,Improved (1) Ancillary Parameters: Thinking,"[1]; subject 1, 01/07/00",0
same,Patient's View,"[1]; subject 1, 01/07/00",0
same,Side-effects,"[1]; subject 1, 01/07/00",Nil
same,Key Parameters: Abstinence,"[1]; subject 1, 01/07/00",0
same,Key Parameters: Craving,"[1]; subject 1, 01/07/00",8
same,Key Parameters: Relapse,"[1]; subject 1, 01/07/00",10
same,Improved (1) Ancillary Parameters: Energy,"[1]; subject 1, 09/07/00",0
same,Improved (1) Ancillary Parameters: Thinking,"[1]; subject 1, 09/07/00",0
same,Patient's View,"[1]; subject 1, 09/07/00",Progress+
same,Side-effects,"[1]; subject 1, 09/07/00",Nil
same,Key Parameters: Abstinence,"[1]; subject 1, 09/07/00",1
same,Key Parameters: Craving,"[1]; subject 1, 09/07/00",7
same,Key Parameters: Relapse,"[1]; subject 1, 09/07/00",8
same,Key Parameters: Audit Score,"[1]; subject 1, 09/07/00",37
CCOC(=O)C1=C(COCCN)NC(C)=C(C(=O)OC)C1c1ccccc1Cl (centres unmarked) [amlodipine],Side-effects of the administered dose,[2],a number of initial transient side-effects
same,time to reach a plateau plasma concentration,[3],5 to 10 days
O=C1CC[C@@]2(O)[C@H]3Cc4ccc(O)c5c4[C@@]2(CCN3CC2CC2)[C@H]1O5 [N25 + Pl],Relapse,"[4]; scale 0-10, 0 = absence, listed as N5 + Pl",0
same,Abstinence,[4]; listed as N5 + Pl,10
same,Patient's View,[4],Progress 0
same,Patient's View,[4]; assessment date 03/11/00,Progress +/−
same,Patient's View,[4]; assessment date 15/11/00,Progress +
same,Patient's View,[4]; listed as N5 + Pl,Progress ++
same,Patient's View,"[4]; listed as NAll25 + Pl, assessment date 03/11/00",Progress+/−
same,Patient's View,"[4]; listed as NAll25 + Pl, assessment date 15/11/00",Progress+
"O=C1CC[C@@]2(O)[C@H]3Cc4ccc(O)c5c4[C@@]2(CCN3CC2CC2)[C@H]1O5 [N25, Naltrexone]",Abstinence,[4],10 and 8
same,Patient's View,[4],Progress+; also recorded: Progress++; also recorded: Progress+++
